We go through four molecules from patent US8202897B2, “Inhibitors of glutaminyl cyclases” (Probiodrug AG, priority 2007, dated 2012).

The target of one data set is glutaminyl cyclase (QC) (Homo sapiens, UniProt Q16769). As to the kind of experiment: QC inhibitor assay (fluorometric/spectrophotometric QC activity assay with inhibitor added).
Sequence of glutaminyl cyclase (QC) (Q16769 29-361): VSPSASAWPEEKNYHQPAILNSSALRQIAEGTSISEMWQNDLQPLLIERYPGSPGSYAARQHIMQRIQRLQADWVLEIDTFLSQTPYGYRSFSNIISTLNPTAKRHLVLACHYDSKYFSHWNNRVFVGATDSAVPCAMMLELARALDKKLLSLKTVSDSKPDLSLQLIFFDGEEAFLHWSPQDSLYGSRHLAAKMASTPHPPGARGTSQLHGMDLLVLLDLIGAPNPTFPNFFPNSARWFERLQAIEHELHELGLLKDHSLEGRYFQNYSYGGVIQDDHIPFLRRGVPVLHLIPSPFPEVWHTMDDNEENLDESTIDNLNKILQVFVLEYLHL

Experimental for glutaminyl cyclase (QC): All measurements were performed with a BioAssay Reader HTS-7000Plus for microplates (Perkin Elmer) at 30° C. QC activity was evaluated fluorometrically using H-Gln-βNA. The samples consisted of 0.2 mM fluorogenic substrate, 0.25 U pyroglutamyl aminopeptidase (Unizyme, Hørsholm, Denmark) in 0.2 M Tris/HCl, pH 8.0 containing 20 mM EDTA and an appropriately diluted aliquot of QC in a final volume of 250 μl. Excitation/emission wavelengths were 320/410 nm. The assay reactions were initiated by addition of glutaminyl cyclase. QC activity was determined from a standard curve of β-naphthylamine under assay conditions. One unit is defined as the amount of QC catalyzing the formation of 1 μmol pGlu-βNA from H-Gln-βNA per minute under the described conditions.
In a second fluorometric assay, QC was activity determined using H-Gln-AMC as substrate. Reactions were carried out at 30° C. utilizing the NOVOStar reader for microplates (BMG labtechnologies). The samples consisted of varying concentrations of the fluorogenic substrate, 0.1 U pyroglutamyl aminopeptidase (Qiagen) in 0.05 M Tris/HCl, pH 8.0 containing 5 mM EDTA and an appropriately diluted aliquot of QC in a final volume of 250 μl. Excitation/emission wavelengths were 380/460 nm. The assay reactions were initiated by addition of glutaminyl cyclase. […] The kinetic data were evaluated using GraFit software.
Samples consisted of the respective QC substrate, 0.3 mM NADH, 14 mM α-Ketoglutaric acid and 30 U/ml glutamate dehydrogenase in a final volume of 250 μl. […] All samples were measured at 30° C., using either the [sequence]luor Plus or the Sunrise (both from TECAN) reader for microplates. Kinetic data was evaluated using GraFit software.
For inhibitor testing, the sample composition was the same as described above, except of the putative inhibitory compound added. For a rapid test of QC-inhibition, samples contained 4 mM of the respective inhibitor and a substrate concentration at 1 KM. For detailed investigations of the inhibition and determination of Ki-values, influence of the inhibitor on the auxiliary enzymes was investigated first. […] The inhibitory constant was evaluated by fitting the set of progress curves to the general equation for competitive inhibition using GraFit software.

Regarding `CCCCN/C(=C/[N+](=O)[O-])NCCCn1ccnc1` [Example 1, N-(3-(1H-imidazol-1-yl)propyl)-N-butyl-2-nitroethene-1.1-diamine], at glutaminyl cyclase (QC), it took 13.2 µM to reach half-maximal inhibition (IC50) and the Ki came out at 2.19 µM.
In the same order, the values of `COc1ccc(N/C(=C/[N+](=O)[O-])NCCCn2ccnc2)c(OC)c1` [Example 10, N-(1-(3-(1H-imidazol-1-yl)propylamino)-2-nitrovinyl)-2.4-dimethoxy-benzenamine] are 8.89 µM and 0.92 µM.
Consider `COc1cc(N/C(=C/[N+](=O)[O-])NCCCn2ccnc2)cc(OC)c1OC` [Example 11, N-(1-(3-(1H-imidazol-1-yl)propylamino)-2-nitrovinyl)-3.4.5-trimethoxy-benzenamine], for which the melting point was 41 to 43 °C. On glutaminyl cyclase (QC), this molecule came in with an IC50 of 6.41 µM and a Ki of 0.74 µM.
Turning to `O=[N+]([O-])/C=C(\NCCCn1ccnc1)Nc1ccc2c(c1)OCO2` [Example 9, N-(1-(3-(1H-imidazol-1-yl)propylamino)-2-nitrovinyl)benzo[d][1.3]dioxol-5-amine], at glutaminyl cyclase (QC), 7.93 µM corresponded to half-maximal inhibition (IC50) and affinity was put at a Ki of 0.95 µM.

A word on the IC50: it is the point on the concentration scale where inhibition reaches its midpoint. Broadly, the Ki is the dissociation constant of the complex between target and ligand, obtained from inhibition or displacement. As a reminder, the melting point is the temperature, or range, at which the solid turns liquid.
